{
  "source": "patent US10266495B2",
  "about": "“Phenyl quinolinone derivatives as mutant-isocitrate dehydrogenase inhibitors” (FORMA TM2, Inc., priority 2014, dated 2019)",
  "note": "pIC50: −log10 of the molar value.",
  "data": [
    {"target": "IDH1-R132H recombinant protein (Homo sapiens, UniProt O75874, R132H)", "sequence (O75874 whole entry R132H)": "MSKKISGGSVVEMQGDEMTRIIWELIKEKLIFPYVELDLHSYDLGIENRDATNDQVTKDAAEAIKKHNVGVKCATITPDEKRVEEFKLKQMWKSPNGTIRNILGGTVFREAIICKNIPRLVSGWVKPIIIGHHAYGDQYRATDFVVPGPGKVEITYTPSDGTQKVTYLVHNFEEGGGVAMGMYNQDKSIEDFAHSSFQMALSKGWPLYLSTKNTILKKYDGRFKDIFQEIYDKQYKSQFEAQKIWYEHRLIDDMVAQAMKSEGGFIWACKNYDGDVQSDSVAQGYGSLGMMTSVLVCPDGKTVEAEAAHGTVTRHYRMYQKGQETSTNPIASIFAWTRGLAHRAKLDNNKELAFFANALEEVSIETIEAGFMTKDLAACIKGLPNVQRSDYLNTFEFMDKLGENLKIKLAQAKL", "test": "IDH1-R132H enzymatic assay (NADPH consumption, diaphorase/resazurin readout)", "assay_type": "biochemical", "conditions": "not given", "method": "(§1) Assays were performed in a 384-well black plate. An aliquot of 250 nL of compound was incubated with 10 μL of 30 nM IDH1-R132H or 10 nM IDH1-R132C recombinant protein in assay buffer (50 mM Tris pH=7.5, 150 mM NaCl, 5 mM MgCl2, 0.1% (w/v) Bovine Serum Albumin, and 0.01% Triton X-100) in each well at 25° C. for 15 minutes. After the plate was centrifuged briefly, an aliquot of 10 μL of 2 mM α-ketoglutarate and 20 μM NADPH solution prepared in assay buffer was then added to each well and the reaction was maintained at 25° C. for 45 minutes. An aliquot of 10 μL of diaphorase solution (0.15 U/mL diaphorase and 30 μM Resazurin in assay buffer) was added to each well. […] The IC50 of a given compound was calculated by fitting the dose response curve of inhibition of NADPH consumption at a given concentration with the four parameter logistic equation.", "values": [
      {"molecule": "N#Cc1ccc(NCc2cc3cc(Cl)ccc3[nH]c2=O)cc1F", "note": "[Compound I-37, 4-{[(6-chloro-2-oxo-1,2-dihydroquinolin-3-yl)methyl]amino}-2-fluorobenzonitrile]", "pIC50": "6.00 to 7.00"},
      {"molecule": "N#Cc1ccc(NCc2cc3cc(Cl)ccc3[nH]c2=O)cc1C(F)(F)F", "note": "[Compound I-35, 4-{[(6-chloro-2-oxo-1,2-dihydroquinolin-3-yl)methyl]amino}-2-(trifluoromethyl)benzonitrile]", "pIC50": "6.00 to 7.00"}
    ]},
    {"target": "IDH1-R132H recombinant protein (Homo sapiens, UniProt O75874, R132H)", "test": "IDH1-R132H enzymatic assay (NADPH consumption, diaphorase/resazurin readout)", "assay_type": "biochemical", "conditions": "read-out: Enzyme IDH1 R132H IC50 Range", "method": "as §1", "values": [
      {"molecule": "COc1cc(NCc2cc3cc(C)c(C)cc3[nH]c2=O)ccc1-n1cnnn1", "note": "[Compound I-20, 3-({[3-methoxy-4-(1H-1,2,3,4-tetrazol-1-yl)phenyl]amino}methyl)-6,7-dimethyl-1,2-dihydroquinolin-2-one]", "pIC50": "6.00 to 7.00"},
      {"molecule": "COc1cc(NCc2cc3ccc(C)cc3[nH]c2=O)ccc1C#N", "note": "[Compound I-54, 2-methoxy-4-{[(7-methyl-2-oxo-1,2-dihydroquinolin-3-yl)methyl]amino}benzonitrile]", "pIC50": "6.00 to 7.00"},
      {"molecule": "COc1cc(N[C@H](C)c2cc3cc(Cl)ccc3[nH]c2=O)ccc1C#N", "note": "[Compound I-3, 4-{[(1R)-1-(6-chloro-2-oxo-1,2-dihydroquinolin-3-yl)ethyl]amino}-2-methoxybenzonitrile]", "pIC50": "< 6.00"},
      {"molecule": "COc1cc(NCc2cc3ccccc3[nH]c2=O)ccc1-n1cnnn1", "note": "[Compound I-48, 3-({[3-methoxy-4-(1H-1,2,3,4-tetrazol-1-yl)phenyl]amino}methyl)-1,2-dihydroquinolin-2-one]", "pIC50": "< 6.00"},
      {"molecule": "NC(=O)COc1ccc(NCc2cc3cc(Cl)ccc3[nH]c2=O)cc1", "note": "[Compound I-43, 2-(4-{[(6-chloro-2-oxo-1,2-dihydroquinolin-3-yl)methyl]amino}phenoxy)acetamide]", "pIC50": "< 6.00"},
      {"molecule": "O=c1[nH]c2ccccc2cc1CNc1ccc(-n2cnnn2)cc1", "note": "[Compound I-49, 3-({[4-(1H-1,2,3,4-tetrazol-1-yl)phenyl]amino}methyl)-1,2-dihydroquinolin-2-one]", "pIC50": "< 6.00"},
      {"molecule": "CNC(=O)c1ccc(NCc2cc3cc(Cl)ccc3[nH]c2=O)cc1", "note": "[Compound I-42, 4-{[(6-chloro-2-oxo-1,2-dihydroquinolin-3-yl)methyl]amino}-N-methylbenzamide]", "pIC50": "< 6.00"},
      {"molecule": "N#Cc1ccc(NCc2cc3cc(Cl)ccc3[nH]c2=O)cc1OCC(N)=O", "note": "[Compound I-14, 2-(5-{[(6-chloro-2-oxo-1,2-dihydroquinolin-3-yl)methyl]amino}-2-cyanophenoxy)acetamide]", "pIC50": "< 6.00"},
      {"molecule": "Cc1cc2cc(CNc3ccc(-n4cnnn4)cc3)c(=O)[nH]c2cc1C", "note": "[Compound I-51, 6,7-dimethyl-3-({[4-(1H-1,2,3,4-tetrazol-1-yl)phenyl]amino}methyl)-1,2-dihydroquinolin-2-one]", "pIC50": "< 6.00"},
      {"molecule": "O=c1[nH]c2ccc(Cl)cc2cc1CNc1ccc(-n2ccnc2)cc1", "note": "[Compound I-39, 6-chloro-3-({[4-(1H-imidazol-1-yl)phenyl]amino}methyl)-1,2-dihydroquinolin-2-one]", "pIC50": "< 6.00"},
      {"molecule": "N#CCc1cccc(NCc2cc3cc(Cl)ccc3[nH]c2=O)c1", "note": "[Compound I-45, 2-(3-{[(6-chloro-2-oxo-1,2-dihydroquinolin-3-yl)methyl]amino}phenyl)acetonitrile]", "pIC50": "< 6.00"},
      {"molecule": "COc1ccc2[nH]c(=O)c(CNc3ccc(-n4ccnc4)cc3)cc2c1", "note": "[Compound I-53, 3-({[4-(1H-imidazol-1-yl)phenyl]amino}methyl)-6-methoxy-1,2-dihydroquinolin-2-one]", "pIC50": "< 6.00"},
      {"molecule": "COc1ccc2[nH]c(=O)c(CNc3ccc(C#N)c(OC)c3)cc2c1", "note": "[Compound I-52, 2-methoxy-4-{[(6-methoxy-2-oxo-1,2-dihydroquinolin-3-yl)methyl]amino}benzonitrile]", "pIC50": "6.00 to 7.00"},
      {"molecule": "COc1cc(NCc2cc3ccc(Cl)cc3[nH]c2=O)ccc1C#N", "note": "[Compound I-29, 4-{[(7-chloro-2-oxo-1,2-dihydroquinolin-3-yl)methyl]amino}-2-methoxybenzonitrile]", "pIC50": "6.00 to 7.00"},
      {"molecule": "COc1cc(NCc2cc3cc(Cl)ccc3[nH]c2=O)ccc1F", "note": "[Compound I-41, 6-chloro-3-{[(4-fluoro-3-methoxyphenyl)amino]methyl}-1,2-dihydroquinolin-2-one]", "pIC50": "< 6.00"},
      {"molecule": "COc1cc(NCc2cc3cc(Cl)ccc3[nH]c2=O)ccc1-n1ccnc1", "note": "[Compound I-12, 6-chloro-3-({[4-(1H-imidazol-1-yl)-3-methoxyphenyl]amino}methyl)-1,2-dihydroquinolin-2-one]", "pIC50": "< 6.00"},
      {"molecule": "N#Cc1ccc(NCc2cc3cc(Cl)ccc3[nH]c2=O)cc1OCCO", "note": "[Compound I-11, 4-{[(6-chloro-2-oxo-1,2-dihydroquinolin-3-yl)methyl]amino}-2-(2-hydroxyethoxy)benzonitrile]", "pIC50": "6.00 to 7.00"},
      {"molecule": "COc1cc(N[C@@H](C)c2cc3cc(Cl)ccc3[nH]c2=O)ccc1S(C)(=O)=O", "note": "[Compound I-6, 6-chloro-3-[(1S)-1-[(4-methanesulfonyl-3-methoxyphenyl)amino]ethyl]-1,2-dihydroquinolin-2-one]", "pIC50": "< 6.00"},
      {"molecule": "Cc1cc2cc(CNc3cccc(S(=O)(=O)NC4=NCCC4)c3)c(=O)[nH]c2cc1C", "note": "[Compound I-19, N-(3,4-dihydro-2H-pyrrol-5-yl)-3-{[(6,7-dimethyl-2-oxo-1,2-dihydroquinolin-3-yl)methyl]amino}benzene-1-sulfonamide]", "pIC50": "< 6.00"},
      {"molecule": "COc1cc(C#N)ccc1NCc1cc2cc(Cl)ccc2[nH]c1=O", "note": "[Compound I-34, 4-{[(6-chloro-2-oxo-1,2-dihydroquinolin-3-yl)methyl]amino}-3-methoxybenzonitrile]", "pIC50": "6.00 to 7.00"},
      {"molecule": "COc1cc(NCc2cc3cc(C)ccc3[nH]c2=O)ccc1-n1cnc(C)c1", "note": "[Compound I-18, 3-({[3-methoxy-4-(4-methyl-1H-imidazol-1-yl)phenyl]amino}methyl)-6-methyl-1,2-dihydroquinolin-2-one]", "pIC50": "< 6.00"},
      {"molecule": "COc1cc(NCc2cc3cc(C)c(C)cc3[nH]c2=O)ccc1C#N", "note": "[Compound I-17, 4-{[(6,7-dimethyl-2-oxo-1,2-dihydroquinolin-3-yl)methyl]amino}-2-methoxybenzonitrile]", "pIC50": "< 6.00"},
      {"molecule": "COc1cc(NCc2cc3cc(Cl)ccc3[nH]c2=O)ccc1S(C)(=O)=O", "note": "[Compound I-15, 6-chloro-3-{[(4-methanesulfonyl-3-methoxyphenyl)amino]methyl}-1,2-dihydroquinolin-2-one]", "pIC50": "< 6.00"},
      {"molecule": "C[C@H](Nc1ccc(C#N)cc1S(C)(=O)=O)c1cc2cc(Cl)ccc2[nH]c1=O", "note": "[Compound I-4, 4-{[(1S)-1-(6-chloro-2-oxo-1,2-dihydroquinolin-3-yl)ethyl]amino}-3-methanesulfonylbenzonitrile]", "pIC50": "< 6.00"},
      {"molecule": "COc1cc(NCc2cc3cccnc3[nH]c2=O)ccc1C#N", "note": "[Compound I-31, 2-methoxy-4-{[(2-oxo-1,2-dihydro-1,8-naphthyridin-3-yl)methyl]amino}benzonitrile]", "pIC50": "< 6.00"},
      {"molecule": "COc1cc(NCc2cc3cc(Cl)c(OCc4ccnc(C)c4)cc3[nH]c2=O)ccc1C#N", "note": "[Compound I-73, 4-[({6-chloro-7-[(2-methylpyridin-4-yl)methoxy]-2-oxo-1,2-dihydroquinolin-3-yl}methyl)amino]-2-methoxybenzonitrile]", "pIC50": "7.00 to 8.00"},
      {"molecule": "COc1cc(NCc2cc3cc(I)ccc3[nH]c2=O)ccc1C#N", "note": "[Compound I-28, 4-{[(6-iodo-2-oxo-1,2-dihydroquinolin-3-yl)methyl]amino}-2-methoxybenzonitrile]", "pIC50": "6.00 to 7.00"},
      {"molecule": "COc1cc(NCc2cc3cc(Cl)cc(O)c3[nH]c2=O)ccc1C#N", "note": "[Compound I-96, 4-{[(6-chloro-8-hydroxy-2-oxo-1,2-dihydroquinolin-3-yl)methyl]amino}-2-methoxybenzonitrile]", "pIC50": "6.00 to 7.00"},
      {"molecule": "COc1ccc2cc(CNc3ccc(C#N)c(OC)c3)c(=O)[nH]c2c1", "note": "[Compound I-56, 2-methoxy-4-{[(7-methoxy-2-oxo-1,2-dihydroquinolin-3-yl)methyl]amino}benzonitrile]", "pIC50": "6.00 to 7.00"},
      {"molecule": "CCOc1ccc2[nH]c(=O)c(CNc3ccc(C#N)c(OC)c3)cc2c1", "note": "[Compound I-55, 4-{[(6-ethoxy-2-oxo-1,2-dihydroquinolin-3-yl)methyl]amino}-2-methoxybenzonitrile]", "pIC50": "6.00 to 7.00"},
      {"molecule": "NC(=O)c1ccccc1NCc1cc2cc(Cl)ccc2[nH]c1=O", "note": "[Compound I-40, 2-{[(6-chloro-2-oxo-1,2-dihydroquinolin-3-yl)methyl]amino}benzamide]", "pIC50": "< 6.00"},
      {"molecule": "O=c1[nH]c2ccc(Cl)cc2cc1CNc1ccccc1F", "note": "[Compound I-46, 6-chloro-3-{[(2-fluorophenyl)amino]methyl}-1,2-dihydroquinolin-2-one]", "pIC50": "< 6.00"},
      {"molecule": "COc1cc(NCc2cc3cc(Br)ccc3[nH]c2=O)ccc1C#N", "note": "[Compound I-23, 4-{[(6-bromo-2-oxo-1,2-dihydroquinolin-3-yl)methyl]amino}-2-methoxybenzonitrile]", "pIC50": "7.00 to 8.00"},
      {"molecule": "CCOCCOc1cc2[nH]c(=O)c(CNc3ccc(C#N)c(OC)c3)cc2cc1Cl", "note": "[Compound I-93, 4-({[6-chloro-7-(2-ethoxyethoxy)-2-oxo-1,2-dihydroquinolin-3-yl]methyl}amino)-2-methoxybenzonitrile]", "pIC50": "6.00 to 7.00"},
      {"molecule": "COc1cc(NCc2cc3cc(Cl)ccc3[nH]c2=O)ccc1Cl", "note": "[Compound I-44, 6-chloro-3-{[(4-chloro-3-methoxyphenyl)amino]methyl}-1,2-dihydroquinolin-2-one]", "pIC50": "< 6.00"},
      {"molecule": "CCOc1cc(NCc2cc3cc(Cl)ccc3[nH]c2=O)ccc1C#N", "note": "[Compound I-13, 4-{[(6-chloro-2-oxo-1,2-dihydroquinolin-3-yl)methyl]amino}-2-ethoxybenzonitrile]", "pIC50": "6.00 to 7.00"},
      {"molecule": "COc1cc(NCc2cc3cc(Cl)c(O)cc3[nH]c2=O)ccc1C#N", "note": "[Compound I-57, 4-{[(6-chloro-7-hydroxy-2-oxo-1,2-dihydroquinolin-3-yl)methyl]amino}-2-methoxybenzonitrile]", "pIC50": "7.00 to 8.00"}
    ]}
  ]
}
